# Results: patent publication US11691951B2 (Curtana Pharmaceuticals, Inc., priority 2015, dated 2023)
# Tested on: GBM8 cells (human glioblastoma neurosphere cell culture)
# Assay: GBM8 viability assay (Cell Titer Glo luminescence, 3 days)
# Type: cell-based
# Conditions: 72 h, 3 days incubation
# Procedure: Example 283: GBM4 and GBM8 Viability Assay
# Cell culture medium was prepared from a NSA proliferation kit (Neurocult) and NeuroCult supplements (Stemcell Tech Cat. #05751) and treated with 20 μL of 10 μg/mL rh EGF, 10 μL of 10 μg/mL rh bFGF and 10 μL of 0.2% Heparin. In this medium, human glioblastoma cells were cultured in ultra-low attachment tissue culture flasks until 1×10^6 cells ml was achieved (GBM4 and GBM8 are distinct neurosphere cell cultures derived from these human patient tissues). GBM4 and GBM8 cells were dissociated and 10 mL of media containing 4000 human glioblastoma cells per 90 uL were transferred to an ultra-low binding 96-well plate and incubated at 37° C. overnight. On the following day, 10 μL of a 1% DMSO solution of test compound in assay medium was added to wells containing the cell suspension and the mixture incubated at 37° C. for 3 days. At this time, the plate was removed from the incubator and allowed to reach room temperature. After about 30 minutes, 50 μL of Cell Titer Glo solution was added to each well and the plate shaken for 1 minute at low speed. After 10 minutes luminescence was recorded using a Tecan Safire2 reader.
# Reduction in luminescence compared to DMSO only control wells was used to determine the percentage inhibition of cell growth. IC50s were calculated using the % inhibition of luminescence for serial dilutions of compounds fitted to a 4-parameter fit within the Prism (San Diego) curve fitting program.
row,SMILES,IC50 [nM]
1,Cc1cc(NCCN)nc(NC(=O)Nc2ccc(F)c(Cl)c2)n1 [Compound 162],< 1000
2,Cc1cc(NCCCCO)nc(NC(=O)Nc2ccc(F)c(Cl)c2)n1 [Compound 163],< 1000
3,Cc1cc(NCC(C)O)nc(NC(=O)Nc2ccc(F)c(Cl)c2)n1 (stereo not drawn) [Compound 164],< 1000
4,CCCNc1cc(C)nc(NC(=O)Nc2ccc(F)c(Cl)c2)n1 [Compound 165],< 1000
5,Cc1cc(NCCOCCO)nc(NC(=O)Nc2ccc(F)c(Cl)c2)n1 [Compound 166],< 1000
6,COC(=O)CCNc1cc(C)nc(NC(=O)Nc2ccc(F)c(Cl)c2)n1 [Compound 167],1000 to 10000
7,"CNCCNc1cc(C)nc(NC(=O)Nc2ccc(F)c(Cl)c2)n1 [Compound 169, 1-(3-chloro-4-fluorophenyl)-3-(4-methyl-6-((2-(methylamino)ethyl)amino)pyrimidin-2-yl)urea]",< 1000
8,CNCCCNc1cc(C)nc(NC(=O)Nc2ccc(F)c(Cl)c2)n1 [Compound 170],< 1000
9,"Cc1cc(NCCCN(C)C)nc(NC(=O)Nc2cccc(OC(F)(F)F)c2)n1 [Compound 172, 1-(4-((3-(dimethylamino)propyl)amino)-6-methylpyrimidin-2-yl)-3-(3-(trifluoromethoxy)phenyl)urea]",< 1000
10,Cc1cc(NCCCCN)nc(NC(=O)Nc2cccc(OC(F)(F)F)c2)n1 [Compound 173],< 1000
11,Cc1cc(NCCN(C)C)nc(NC(=O)Nc2cccc(OC(F)(F)F)c2)n1 [Compound 174],1000 to 10000
12,Cc1cc(NCCCCO)nc(NC(=O)Nc2cccc(OC(F)(F)F)c2)n1 [Compound 175],< 1000
13,Cc1cc(NCCO)nc(NC(=O)Nc2cccc(OC(F)(F)F)c2)n1 [Compound 176],< 1000
14,Cc1cc(NCCCN)nc(NC(=O)Nc2cccc(OC(F)(F)F)c2)n1 [Compound 177],< 1000
15,Cc1cc(NCCN)nc(NC(=O)Nc2cccc(OC(F)(F)F)c2)n1 [Compound 178],< 1000
16,"Cc1cc(NCCCN(C)C)nc(NC(=O)Nc2cccc(C(F)(F)F)c2)n1 [Compound 180, 1-(4-((3-(dimethylamino)propyl)amino)-6-methylpyrimidin-2-yl)-3-(3-(trifluoromethyl)phenyl)urea]",< 1000
17,Cc1cc(NCCCCO)nc(NC(=O)Nc2cccc(C(F)(F)F)c2)n1 [Compound 181],< 1000
18,Cc1cc(NCCN)nc(NC(=O)Nc2cccc(C(F)(F)F)c2)n1 [Compound 182],< 1000
19,Cc1cc(NCCOCCO)nc(NC(=O)Nc2cccc(C(F)(F)F)c2)n1 [Compound 183],1000 to 10000
20,Cc1cc(NCCO)nc(NC(=O)Nc2cccc(C(F)(F)F)c2)n1 [Compound 184],< 1000
21,Cc1cc(NCC(C)O)nc(NC(=O)Nc2cccc(C(F)(F)F)c2)n1 (stereo not drawn) [Compound 185],< 1000
22,Cc1cc(NCC(O)CO)nc(NC(=O)Nc2cccc(C(F)(F)F)c2)n1 (stereo not drawn) [Compound 187],< 1000
23,Cc1cc(NCC(F)(F)CO)nc(NC(=O)Nc2cccc(C(F)(F)F)c2)n1 [Compound 188],< 1000
24,Cc1cc(NCCN(C)C)nc(NC(=O)Nc2cccc(C(F)(F)F)c2)n1 [Compound 189],1000 to 10000
25,Cc1cc(NCCCCN)nc(NC(=O)Nc2cccc(C(F)(F)F)c2)n1 [Compound 190],< 1000
26,Cc1cc(NCCCCN(C)C)nc(NC(=O)Nc2cccc(C(F)(F)F)c2)n1 [Compound 191],< 1000
27,Cc1cc(NCCCN)nc(NC(=O)Nc2cccc(C(F)(F)F)c2)n1 [Compound 192],< 1000
28,"CNCCCNc1cc(C)nc(NC(=O)Nc2cccc(C(F)(F)F)c2)n1 [Compound 194, 1-(4-methyl-6-((3-(methylamino)propyl)amino)pyrimidin-2-yl)-3-(3-(trifluoromethyl)phenyl)urea]",< 1000
29,"Cc1cc(NCCCN(C)C)nc(NC(=O)Nc2ccc(C(F)(F)F)cc2)n1 [Compound 196, 1-(4-((3-(dimethylamino)propyl)amino)-6-methylpyrimidin-2-yl)-3-(4-(trifluoromethyl)phenyl)urea]",< 1000
30,Cc1cc(NCCCCN)nc(NC(=O)Nc2ccc(C(F)(F)F)cc2)n1 [Compound 197],< 1000
